By IC50 is commonly meant the midpoint of a concentration-inhibition curve. Lower therefore signals greater potency.

Here are results for one compound from ChEMBL document CHEMBL1151256, “New alkaloids and a tetraflavonoid from Cephalotaxus wilsoniana” (J Nat Prod, 2004).

One assay concerns MCF7. The assay can be described thus: Cytotoxicity against human MCF7 cells after 6 days by MTT assay. It counts as functional, cell-based. The settings on record: MCF7, 144 h.
A further assay concerns HT-29. Nature of the assay: Cytotoxicity against human HT-29 cells after 6 days by MTT assay. In kind it is functional, cell-based. The settings on record: HT-29, 144 h. For orientation: Tetrazolium assays rely on reduction of a dye to a coloured formazan, in cell work by metabolically active cells.
Assay [1] is described as follows: Cytotoxicity against human Hep3B cells after 6 days by MTT assay. The note with it: 144 h. In kind it is functional, cell-based, Hep 3B2.
The subject of the next assay is HepG2. The assay can be described thus: Cytotoxicity against human HepG2 cells after 6 days by MTT assay. In kind it is functional, cell-based. The note with it: HepG2, 144 h.

Values after ≈ are worked out from the molar mass of the structure shown.

With `COc1cc2c(cc1OC)C13C[C@@H](OC)C=C[C@@]14O[C@H]4C(=O)N3CCC2` (some centres undefined), the IC50 in the assay with MCF7 turned out to be 42 µg/mL (≈ 118 µM); in the assay on HT-29, 24.4 µg/mL (≈ 68.3 µM); in assay [1], 52 µg/mL (≈ 145 µM); with HepG2, 52 µg/mL (≈ 145 µM).
